Key:
Sprague-Dawley rats = assay: Pilot prenatal developmental toxicity study in Sprague-Dawley rats (Example 1); type: in vivo, rat
Excerpt: A total of 52 Sprague-Dawley (SD) rats were used in this study.
Observations of the animals included cageside assessments (twice daily), evaluation of clinical signs (daily from GD 6 through 20), body weights (at arrival—GD 2 or 3—and GD 6, 9, 12, 15, 18, and 20), food consumption (GD 6-20), and anatomical pathology including a uterine examination. […] All fetuses were given an external examination.

human serum albumin = human serum albumin (Homo sapiens, UniProt P02768); assay: Binding to human serum albumin in vitro; type: in vitro ADME
BCRP = molecular target: T1, BCRP (Homo sapiens, UniProt Q9UNQ0); assay: Transporter systems in vitro: BCRP; type: in vitro ADME; conditions: clinically relevant concentrations
T1 sequence (Q9UNQ0 1-655): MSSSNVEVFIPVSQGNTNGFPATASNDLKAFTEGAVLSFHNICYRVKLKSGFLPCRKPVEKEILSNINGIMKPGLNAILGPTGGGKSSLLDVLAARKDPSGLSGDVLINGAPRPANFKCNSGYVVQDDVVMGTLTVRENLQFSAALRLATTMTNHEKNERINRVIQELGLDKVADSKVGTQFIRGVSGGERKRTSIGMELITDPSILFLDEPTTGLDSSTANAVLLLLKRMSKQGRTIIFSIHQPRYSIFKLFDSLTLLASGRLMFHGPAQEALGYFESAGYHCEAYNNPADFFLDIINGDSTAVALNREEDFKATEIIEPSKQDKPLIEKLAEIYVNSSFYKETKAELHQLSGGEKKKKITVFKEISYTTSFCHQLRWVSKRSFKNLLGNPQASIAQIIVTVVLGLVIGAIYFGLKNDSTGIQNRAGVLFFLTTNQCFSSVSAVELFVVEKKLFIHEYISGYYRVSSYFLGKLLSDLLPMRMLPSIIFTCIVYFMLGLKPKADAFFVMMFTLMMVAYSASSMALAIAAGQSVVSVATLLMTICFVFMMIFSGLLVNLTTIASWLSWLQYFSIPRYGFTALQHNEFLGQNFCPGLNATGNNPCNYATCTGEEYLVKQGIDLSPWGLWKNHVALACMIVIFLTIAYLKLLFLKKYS

CYP2D6 = CYP2D6 (Homo sapiens, UniProt P10635); assay: Enzyme systems in vitro: CYP2D6; type: in vitro ADME
[1] = system: human peripheral blood lymphocytes (HPBL); assay: in vitro chromosome aberration assay; type: cell-based

Sequence of CYP2D6 (P10635 whole entry): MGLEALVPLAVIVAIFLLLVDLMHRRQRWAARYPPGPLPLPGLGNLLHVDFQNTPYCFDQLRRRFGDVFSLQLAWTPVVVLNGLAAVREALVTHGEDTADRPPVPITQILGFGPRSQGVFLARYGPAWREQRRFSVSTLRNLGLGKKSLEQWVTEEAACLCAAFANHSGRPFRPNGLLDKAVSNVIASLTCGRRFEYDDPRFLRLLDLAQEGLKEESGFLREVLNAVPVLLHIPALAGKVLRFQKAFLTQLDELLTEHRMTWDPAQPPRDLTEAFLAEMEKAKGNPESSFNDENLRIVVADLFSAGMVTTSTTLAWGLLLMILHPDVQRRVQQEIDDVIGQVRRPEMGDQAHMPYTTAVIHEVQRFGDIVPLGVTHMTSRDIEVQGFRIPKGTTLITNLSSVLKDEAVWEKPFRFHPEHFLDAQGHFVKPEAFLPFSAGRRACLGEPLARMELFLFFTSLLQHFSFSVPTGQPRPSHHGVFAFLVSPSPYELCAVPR
Sequence of human serum albumin (P02768 25-609): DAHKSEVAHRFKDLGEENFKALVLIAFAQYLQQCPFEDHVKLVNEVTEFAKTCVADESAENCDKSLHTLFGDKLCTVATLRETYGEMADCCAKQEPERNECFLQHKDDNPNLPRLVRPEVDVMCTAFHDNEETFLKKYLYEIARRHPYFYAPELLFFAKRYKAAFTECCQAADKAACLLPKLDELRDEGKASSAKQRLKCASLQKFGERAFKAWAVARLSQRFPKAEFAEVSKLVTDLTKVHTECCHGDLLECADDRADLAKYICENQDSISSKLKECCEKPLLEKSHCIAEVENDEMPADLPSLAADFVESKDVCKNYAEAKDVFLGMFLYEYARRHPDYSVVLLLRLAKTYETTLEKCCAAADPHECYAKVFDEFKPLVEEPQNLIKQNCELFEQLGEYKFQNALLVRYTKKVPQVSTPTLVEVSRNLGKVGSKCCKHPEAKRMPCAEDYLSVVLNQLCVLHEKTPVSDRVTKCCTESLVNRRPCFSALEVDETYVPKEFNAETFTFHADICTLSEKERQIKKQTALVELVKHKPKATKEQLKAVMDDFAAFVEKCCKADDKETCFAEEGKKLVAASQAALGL

With `CC(C)NC(=O)COc1cccc(-c2nc(Nc3ccc4[nH]ncc4c3)c3ccccc3n2)c1` [belumosudil, 2-{3-[4-(1H-indazol-5-ylamino)-2-quinazolinyl]phenoxy}-N-(propan-2-yl) acetamide] the Mean post-implantation loss (Sprague-Dawley rats; 25 mg base/kg/day) was 4.00 % per litter, the “Mean viable litter size” value (Sprague-Dawley rats; 25 mg base/kg/day) was 13.2 and the “combined mean fetal body weight (males and females)” value (“combined mean fetal body weight” for short) (Sprague-Dawley rats; 25 mg base/kg/day) was 4.37 g. The “mean fetal body weight (female fetuses)” value (Sprague-Dawley rats; 25 mg base/kg/day) was 4.19 g, the Mean post-implantation loss (Sprague-Dawley rats; 50 mg base/kg/day) was 11.62 % per litter and the “Mean viable litter size” value (Sprague-Dawley rats; 50 mg base/kg/day) was 11.6. The “combined mean fetal body weight” value (Sprague-Dawley rats; 50 mg base/kg/day) was 4.50 g, the “litter incidence of external fetal malformations” value (shortened to “litter incidence”) (Sprague-Dawley rats; 50 mg base/kg/day) was 40% and the “mean fetal body weight (female fetuses)” value (Sprague-Dawley rats; 50 mg base/kg/day) was 4.39 g. For the same molecule, the Mean post-implantation loss (Sprague-Dawley rats; 150 mg base/kg/day) was 4.51 % per litter, the “Mean viable litter size” value (Sprague-Dawley rats; 150 mg base/kg/day) was 12.2 and the “combined mean fetal body weight” value (Sprague-Dawley rats; 150 mg base/kg/day) was 4.22 g. For the same molecule, the “litter incidence” value (Sprague-Dawley rats; 150 mg base/kg/day) was 20%, the maternal toxicity (Sprague-Dawley rats; 150 mg base/kg/day) was “moderate” and the mean body weights (Sprague-Dawley rats; 150 mg base/kg/day) was “reduced throughout gestation”. The “mean fetal body weight (female fetuses)” value (Sprague-Dawley rats; 150 mg base/kg/day) was 4.18 g, the Mean post-implantation loss (Sprague-Dawley rats; 300 mg base/kg/day) was 24.51 % per litter and the “Mean viable litter size” value (Sprague-Dawley rats; 300 mg base/kg/day) was 10.0. For the same molecule, the clinical signs (Sprague-Dawley rats; 300 mg base/kg/day) was “unkempt and/or thin appearance, and hunched posture”, the “combined mean fetal body weight” value (Sprague-Dawley rats; 300 mg base/kg/day) was 3.42 g and the “litter incidence” value (Sprague-Dawley rats; 300 mg base/kg/day) was 25%. For the same molecule, the “maternal, embryo, and fetal toxicity” value (Sprague-Dawley rats; 300 mg base/kg/day) was “excessive”, the “mean body weight values, body weight gains and food consumption” value (Sprague-Dawley rats; 300 mg base/kg/day) was “adversely affected at every interval” and the “mean fetal body weight (female fetuses)” value (Sprague-Dawley rats; 300 mg base/kg/day) was 3.34 g. For the same molecule, the maternal toxicity (Sprague-Dawley rats; 25 and 50 mg base/kg/day) was “slight”, the “mean body weight gains and food consumption” value (Sprague-Dawley rats; 25 and 50 mg base/kg/day, GD 6-9, 6-18, 6-20) was “slightly reduced” and the maternal necropsy findings (Sprague-Dawley rats; any treated group) was “No adverse maternal necropsy findings”. For the same molecule, the “doses at which fetal malformations were observed (absence of anus and tail, omphalocele, dome shaped head)” value (Sprague-Dawley rats; pilot study, pregnant rats, oral) was ≥ 50 mg/kg/day, the “binding to human serum albumin” value (human serum albumin) was 99.9% and the BCRP inhibition (BCRP) was “inhibits”. For the same molecule, the CYP2D6 inhibition (CYP2D6) was “inhibitor” and the “genotoxicity, chromosome aberration assay” value [1] was “not genotoxic”.
